Data published in patent US20120004282A1, “RNA Interference Mediated Inhibition of the Intercellular Adhesion Molecule 1 (ICAM-1) Gene Expression Using Short Interfering Nucleic Acid (siNA)” (Merck Sharp & Dohme Corp,, priority 2009, published 2012).
[invAb] = inverted abasic unit; m = 2'-O-methyl; r = 2'-OH (RNA); f = 2'-fluoro

test system: ICAM-1 mRNA; experiment: ICAM-1 mRNA knock-down in transfected Calu-1 cells (Taqman RT-PCR); type: cell-based, human; conditions: Calu-1 cells, 10 nM siNA, 24 hrs post-transfection, mean ± S.D., relative to non-targeting control
Procedure: Calu-1 (human; ATCC cat# HTB-54): Cells were cultured at 37° C. in the presence of 5% CO2 and grown in McCoy's 5a medium supplemented with fetal bovine serum at a final concentration of 10% and 100 μg/mL of streptomycin and 100 U/mL penicillin.
All transfections were performed using RNAiMax (Invitrogen Cat# 13778-150) as per the manufacturer's instructions.
Calu-1 cells were plated in all wells of a tissue-culture treated, 96-well plate at final counts of 5,000 cells/well in 100 μL of appropriate culture media. Cells were cultured for 24 hours after plating at 37° C. in the presence of 5% CO2.
After 24 hours, complexes containing siNA and RNAiMax were created as follows. A solution of RNAiMax diluted 33-fold in OPTI-MEM was prepared. In parallel, solutions of the siNAs for testing were prepared to a final concentration of 120 nM in OPTI-MEM. After incubation of RNAiMax/OPTI-MEM solution at room temperature for 5 min, an equal volume of the siNA solution and the RNAiMax solution were added together for each of the siNAs. […] This solution was incubated at room temperature for 20 minutes. After incubation, 20 uL of the solution was added to each of the relevant wells. The final concentration of siNA in each well was 10 nM and the final volume of RNAiMax in each well was 0.3 uL.
The time of incubation with the RNAiMax-siNA complexes was 24 hours, unless otherwise indicated. There was no change in media between the transfection and harvesting of the cells unless otherwise indicated.
Dose response curves were carried out in a similar fashion in 96-well plates, while maintaining a constant amount of RNAiMax in each transfection.
RNA was extracted from a 96-well plate using the TaqMan® Gene Expression Cells-to-CT™ Kit (Cat# 4399002) with a modified protocol. Briefly, a 60 uL (1 plate) or 110 uL (2 plates) of the Lysis Solution with DNase I was dispensed into each well of the Lysis Buffer Plate (twin.tec full skirt plate). The lysis buffer and stop plates were stored at 4° C. until the cells were washed.
The plate was spun at 1100 rpm for 5 minutes. The culture medium was aspirated and discarded from the wells of the culture plate. The lysis was performed automatically using a BioMek FX instrument and method. After the Biomek method was completed, the lysis plate was incubated for 2 min. at room temperature. The lysis plate can be stored for 2 hours at 4° C., or at −20° C. or −80° C. for two months.
Each well of the reverse transcription plate required 10 uL of 2× reverse transcriptase Buffer, 1 uL of 20× reverse transcription enzyme and 2 uL of nuclease-free water. The reverse transcription master mix was prepared by mixing 2× reverse transcription buffer, 20× reverse transcription enzyme mix, and nuclease-free water. 13 uL of the reverse transcription master mix was dispensed into each well of the reverse transcription plate (semi-skirted). A separate reverse transcription plate was prepared for each cell plate. The plate was loaded onto a Biomek NX or Biomek FX Dual-96 and the Biomek method was run. The program is programmed to automatically added 7 uL of lysate from the cell lysis procedure described above into each well of the reverse transcription plate. The plate is sealed and spun on a centrifuge (1000 rpm for 30 seconds) to settle the contents to the bottom of the reverse transcription plate. The plate is placed in a thermocycler at 37° C. for 60 min, 95° C. for 5 min, and 4° C. until the plate is removed from the thermocycler. Upon removal, if not used immediately, the plate was frozen at −20° C.
A series of probes and primers were used to detect the various mRNA transcripts of the genes of ICAM-1 and ICAM-2 in human cell lines (see Table 2). All the Taqman probes and primers for the experiments here-in described were supplied as pre-validated sets by Applied Biosystems, Inc., (see Table 2). The assays were performed on an ABI 7900 instrument, according to the manufacturer's instructions. […]

Substance | % KD Human [%]
48697-DC: siNA duplex, ICAM-1 target site 1641 (m); sense B GcucAGGAGGAGGccAuAA TTB; antisense UUAuGGccuccuccuGAGcUU (sense GCUCAGGAGGAGGCCAUAATT; antisense UUAUGGCCUCCUCCUGAGCUU; sense: DNA at AGT, 2'-fluoro at CU, [invAb] at 5' end, 3' end, backbone not given here; antisense: sugars from the 5' end rrrfmmfffffffffmmmfmm, backbone not given here) | 14 ± 11
48721-DC: siNA duplex, ICAM-1 target site 523 (h); sense B GuuGcuccuGccuGGGAAc TTB; antisense GUUcccAGGcAGGAGcAAcUU (sense GUUGCUCCUGCCUGGGAACTT; antisense GUUCCCAGGCAGGAGCAACUU; sense: DNA at AGT, 2'-fluoro at CU, [invAb] at 5' end, 3' end, backbone not given here; antisense: sugars from the 5' end rrrfffmmmfmmmmmfmmfmm, backbone not given here) | 56 ± 16
48715-DC: siNA duplex, ICAM-1 target site 1828 (m); sense B AcuuGuAGccucAGAGcuA TTB; antisense UAGcucuGAGGcuAcAAGuUU (sense ACUUGUAGCCUCAGAGCUATT; antisense UAGCUCUGAGGCUACAAGUUU; sense: DNA at AGT, 2'-fluoro at CU, [invAb] at 5' end, 3' end, backbone not given here; antisense: sugars from the 5' end rrrffffmmmmffmfmmmfmm, backbone not given here) | 14 ± 12
29281-DC: siNA duplex, ICAM-1 target site 1650 (h); sense B cAGuGAcuGucAcucGAGA TTB; antisense UCUcGAGuGAcAGucAcuGUU (sense CAGUGACUGUCACUCGAGATT; antisense UCUCGAGUGACAGUCACUGUU; sense: DNA at AGT, 2'-fluoro at CU, [invAb] at 5' end, 3' end, backbone not given here; antisense: sugars from the 5' end rrrfmmmfmmfmmffmffmmm, backbone not given here) | 45 ± 21
48712-DC: siNA duplex, ICAM-1 target site 1579 (m); sense B uGAuGGcAGccucuuAuGu TTB; antisense ACAuAAGAGGcuGccAucAUU (sense UGAUGGCAGCCUCUUAUGUTT; antisense ACAUAAGAGGCUGCCAUCAUU; sense: DNA at AGT, 2'-fluoro at CU, [invAb] at 5' end, 3' end, backbone not given here; antisense: sugars from the 5' end rrrfmmmmmmffmffmffmmm, backbone not given here) | 34 ± 27
29283-DC: siNA duplex, ICAM-1 target site 1811 (h); sense B cucAGcAcGuAccucuAuA TTB; antisense UAUAGAGGuAcGuGcuGAGUU (sense CUCAGCACGUACCUCUAUATT; antisense UAUAGAGGUACGUGCUGAGUU; sense: DNA at AGT, 2'-fluoro at CU, [invAb] at 5' end, 3' end, backbone not given here; antisense: sugars from the 5' end rrrmmmmmfmfmfmffmmmmm, backbone not given here) | 63 ± 8
48724-DC: siNA duplex, ICAM-1 target site 560 (h); sense B cuGAGcAAuGuGcAAGAAG TTB; antisense CUUcuuGcAcAuuGcucAcUU (sense CUGAGCAAUGUGCAAGAAGTT; antisense CUUCUUGCACAUUGCUCACUU; sense: DNA at AGT, 2'-fluoro at CU, [invAb] at 5' end, 3' end, backbone not given here; antisense: sugars from the 5' end rrrfffmfmfmffmfffmfmm, backbone not given here) | 34 ± 8
48704-DC: siNA duplex, ICAM-1 target site 395 (m); sense B cGuGuAuucGuuuccGGAG TTB; antisense CUCcGGAAAcGAAuAcAcGUU (sense CGUGUAUUCGUUUCCGGAGTT; antisense CUCCGGAAACGAAUACACGUU; sense: DNA at AGT, 2'-fluoro at CU, [invAb] at 5' end, 3' end, backbone not given here; antisense: sugars from the 5' end rrrfmmmmmfmmmfmfmfmmm, backbone not given here) | 33 ± 22
48711-DC: siNA duplex, ICAM-1 target site 1577 (m); sense B cGuGAuGGcAGccucuuAu TTB; antisense AUAAGAGGcuGccAucAcGUU (sense CGUGAUGGCAGCCUCUUAUTT; antisense AUAAGAGGCUGCCAUCACGUU; sense: DNA at AGT, 2'-fluoro at CU, [invAb] at 5' end, 3' end, backbone not given here; antisense: sugars from the 5' end rrrmmmmmffmffmffmfmmm, backbone not given here) | 42 ± 13
48709-DC: siNA duplex, ICAM-1 target site 988 (m); sense B GGAccuuAAcAGucuAcAA TTB; antisense UUGuAGAcuGuuAAGGuccUU (sense GGACCUUAACAGUCUACAATT; antisense UUGUAGACUGUUAAGGUCCUU; sense: DNA at AGT, 2'-fluoro at CU, [invAb] at 5' end, 3' end, backbone not given here; antisense: sugars from the 5' end rrrfmmmffmffmmmmfffmm, backbone not given here) | 32 ± 14
48717-DC: siNA duplex, ICAM-1 target site 911 (m); sense B GGuGAcuGAGGAGuucGAc TTB; antisense GUCGAAcuccucAGucAccUU (sense GGUGACUGAGGAGUUCGACTT; antisense GUCGAACUCCUCAGUCACCUU; sense: DNA at AGT, 2'-fluoro at CU, [invAb] at 5' end, 3' end, backbone not given here; antisense: sugars from the 5' end rrrmmmffffffmmffmffmm, backbone not given here) | −9 ± 17
48699-DC: siNA duplex, ICAM-1 target site 668 (m); sense B GcuGGcAuuGuucucuAAu TTB; antisense AUUAGAGAAcAAuGccAGcUU (sense GCUGGCAUUGUUCUCUAAUTT; antisense AUUAGAGAACAAUGCCAGCUU; sense: DNA at AGT, 2'-fluoro at CU, [invAb] at 5' end, 3' end, backbone not given here; antisense: sugars from the 5' end rrrmmmmmmfmmfmffmmfmm, backbone not given here) | 25 ± 9
48703-DC: siNA duplex, ICAM-1 target site 394 (m); sense B ccGuGuAuucGuuuccGGA TTB; antisense UCCGGAAAcGAAuAcAcGGUU (sense CCGUGUAUUCGUUUCCGGATT; antisense UCCGGAAACGAAUACACGGUU; sense: DNA at AGT, 2'-fluoro at CU, [invAb] at 5' end, 3' end, backbone not given here; antisense: sugars from the 5' end rrrmmmmmfmmmfmfmfmmmm, backbone not given here) | 30 ± 15
